Values joined by “and” are separate entries in the source; they are usually repeats but may differ in a detail not shown here. Equal entries are not always repeated.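 A five-concentration, 48-hour dose response in 96-well plates underlies each endpoint, interpolated linearly between surrounding concentrations. GI50 = concentration required for 50% inhibition of growth. Definition used: TGI = concentration required for complete inhibition of growth.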
What was measured:
Test in all cases: inhibition of tumour cell growth, NCI panel, 48 h
[1] = tested on: HL-60(TB) leukemia
[2] = tested on: SF-539 CNS
[3] = tested on: EKVX NSCLC
[4] = tested on: SK-MEL-28 melanoma
[5] = tested on: OVCAR-4 ovarian
[6] = tested on: 786-0 renal
[7] = tested on: SNB-19 CNS
[8] = tested on: UO-31 renal
[9] = tested on: OVCAR-3 ovarian
[10] = tested on: KM20L2 colon
[11] = tested on: LXFL 529 NSCLC
[12] = tested on: DMS 114 small cell lung

Compound	TGI [1]	TGI [2]	TGI [3]	TGI [4]	TGI [5]	TGI [6]	TGI [7]	TGI [8]	TGI [9]	TGI [10] [µM]	TGI [11] [µM]	TGI [12] [µM]	GI50 [2]	GI50 [5]
CCCCCC[C@H]([C@H](C)O)n1cnc2c(N)ncnc21	> 100 µM	> 100 µM	> 100 µM	> 100 µM	> 100 µM	> 100 µM	> 100 µM	> 100 µM	> 100 µM	–	–	–	–	–
Clc1ccc2c(NCCCCCCNc3ccnc4cc(Cl)ccc34)ccnc2c1	4.7 µM	3.6 µM	25.9 µM	9.78 µM	5.93 µM	4.15 µM	13.5 µM	10.6 µM	3.77 µM	4.39	7.3	3.34	–	–
COc1ccccc1NC(=O)C(=O)C(C(=O)c1ccccc1F)C1OC(=O)c2ccccc21 (centres undefined)	56.5 µM	66.1 µM	> 100 µM	> 100 µM	> 100 µM	–	64 µM	98.7 µM	–	58.2	> 100	64.3	–	–
COC1CC(C)(NC(=O)C(F)(F)F)C2OC(c3ccccc3)OCC2O1 (centres undefined)	> 100 µM	> 100 µM	> 100 µM	> 100 µM	> 100 µM	> 100 µM	> 100 µM	> 100 µM	> 100 µM	–	–	–	–	–
COC(=N)C1(C#N)NC(c2ccsc2)C(C#N)(C#N)NC1c1ccsc1 (centres undefined)	> 100 µM	> 100 µM	> 100 µM	> 100 µM	> 100 µM	> 100 µM	> 100 µM	> 100 µM	> 100 µM	–	–	–	–	–
O=C1Nc2ccccc2/C1=C\c1c(Cl)n(-c2ccccc2)c2ccccc12	> 100 µM	18.4 µM	7.7 µM	> 100 µM	21.6 µM	7.71 µM	13.3 µM	16 µM	4.86 µM	–	–	–	–	–
Cc1nc2c(Br)cc(Br)cc2c(=O)n1-c1ccccc1NC1OC(CO)C(O)C(O)C1O (centres undefined)	> 100 µM	> 100 µM	> 100 µM	> 100 µM	> 100 µM	> 100 µM	> 100 µM	> 100 µM	> 100 µM	–	–	–	–	–
CC1=C(CO)C(=O)OC(C(C)C2CCC3C4CC5OC56C(O)C(N5CC5)=CC(=O)C6(C)C4CCC23C)C1 (centres undefined)	6.08 µM	14 µM	25.6 µM	31.1 µM	20.6 µM	17.8 µM	9.56 µM	25.7 µM	11.7 µM	9.87	15.9	5.85	–	–
Cc1nc(NC(C)(CO)CO)nc(N/N=C/c2ccc(Cl)cc2)c1C(=O)Nc1ccc(Cl)cc1	> 100 µM	> 100 µM	> 100 µM	> 100 µM	> 100 µM	> 100 µM	> 100 µM	> 100 µM	> 100 µM	–	–	–	–	–
CC(=O)NC1C(OCc2ccccc2)OC(CO)C(O)C1OC(C)C(=O)N[C@@H](C)C(=O)N[C@H](CCC(=O)NCCNCCNc1c2ccccc2nc2cccc([N+](=O)[O-])c12)C(N)=O (some centres undefined)	> 80.5 µM	0.991 µM	2.74 µM	0.723 µM	0.0817 µM	0.921 µM	1.86 µM	0.607 µM	4.44 µM	–	–	–	–	–
FC1=C2C3CCC(C3)C2C1(F)F (centres undefined)	> 100 µM	> 100 µM	> 100 µM	> 100 µM	> 100 µM	> 100 µM	> 100 µM	> 100 µM	> 100 µM	–	–	–	–	–
NC(=O)CCC(N=c1c2ccccc2n(O)c2ccccc12)C(=O)O (centres undefined)	> 100 µM	–	> 100 µM	89.4 µM	> 100 µM	> 100 µM	> 100 µM	> 100 µM	> 100 µM	> 100	> 100	> 100	–	–
Cc1ccccc1NC(=O)O/N=C(\Cl)C(C)C	> 22 µM	22.6 µM	4.94 µM	6.25 µM	23.2 µM	3.45 µM	41.9 µM	31.3 µM	9.35 µM	–	–	–	–	–
C[C@]12CC[C@H]3[C@@H](CC=C4C[C@@H](N5CCCC5)CC[C@@]43C)[C@@H]1C[C@H](N1CCCCC1)[C@@H]2O	> 100 µM	> 100 µM	> 100 µM	> 100 µM	> 100 µM	> 100 µM	> 100 µM	> 100 µM	> 100 µM	–	–	–	–	–
CSC(SC)=C(C(=O)c1ccc(Cl)cc1)n1c(=O)sc2cc(Br)ccc21	> 100 µM	> 100 µM	> 100 µM	> 100 µM	> 100 µM	> 100 µM	> 100 µM	> 100 µM	> 100 µM	–	–	–	–	–
O=C(O)C(Cc1ccccc1)NCc1c(O)ccc2c(-c3ccccc3)cc(=O)oc12 (centres undefined)	> 100 µM	> 100 µM	> 100 µM	> 100 µM	> 100 µM	> 100 µM	> 100 µM	> 100 µM	> 100 µM	–	–	–	–	–
COC(=O)c1c2c(cc3c1CC1(Cc4cc5c(c(C=O)c4C1)CCC5)C3)CCC2 (centres undefined)	51.5 µM	> 100 µM	> 100 µM	> 100 µM	> 100 µM	> 100 µM	> 100 µM	71.8 µM	99.2 µM	–	–	–	–	–
O=C1NC(O)c2cc3ccccc3cc2O1 (centres undefined)	> 100 µM	89.9 µM	> 100 µM	> 100 µM	> 100 µM	> 100 µM	> 100 µM	> 100 µM	88.5 µM	–	–	–	–	–
C=C1c2nc3ccccc3n2C=C(c2ccc(C)cc2)N1c1ccc(OC)cc1	55.6 µM	> 100 µM	> 100 µM	> 100 µM	> 100 µM	> 100 µM	> 100 µM	> 100 µM	> 100 µM	–	–	–	–	–
COC(=O)C1OC(O[C@H]2CC[C@]3(C)[C@H]4CC=C5[C@@H]6CC(C)(C)CC[C@]6(C(=O)OC6OCC(O)C(O)C6OC6OC(C)C(OC7OCC(O)C(O)C7O)C(O)C6O)[C@H](O)C[C@@]5(C)[C@]4(C)CC[C@H]3C2(C)C)C(O)C(O)C1O (some centres undefined)	5.28 µM and 6.62 µM	> 100 µM and 37.5 µM	8.04 µM and 11.1 µM	3.57 µM and 4.63 µM	6.7 µM and 16.5 µM	19 µM and 21.8 µM	17.5 µM and 21.9 µM	3.54 µM and 5.18 µM	> 78.1 µM and 25 µM	–	–	–	> 100 µM and 19 µM	0.927 µM and 4.32 µM
O=[N+]([O-])c1ccc(-n2nc3ccc4nonc4c3n2)cc1	> 100 µM	> 100 µM	> 100 µM	> 100 µM	47 µM	89.4 µM	> 100 µM	62.9 µM	> 100 µM	–	–	–	–	–

Compound	TGI [1]	TGI [2]	TGI [3]	TGI [4]	TGI [5]	TGI [6]	TGI [7]	TGI [8]	TGI [9]	TGI [10] [µM]	TGI [11] [µM]	TGI [12] [µM]	GI50 [2]	GI50 [5]
CC(C)CCCC(C)[C@H]1CCC(C2C[C@@H](O)[C@@H]3CC(O)[C@@H](O)C[C@]3(CO)C2=O)[C@]1(C)CCO (some centres undefined)	38.6 µM	39.6 µM	> 94.9 µM	40.5 µM	> 83.8 µM	–	96.3 µM	49.8 µM	47.9 µM	38.5	–	39.7	–	–
CC1=NN(C(=O)CC(=O)Nc2cccc(C)c2)C(=O)C1N=Nc1ccc(S(=O)(=O)CCOS(=O)(=O)O)cc1 (centres undefined)	> 100 µM	6.49 µM	> 64.6 µM	19.7 µM	27 µM	12.9 µM	22.3 µM	10.5 µM	14.9 µM	–	–	–	–	–
CCOc1ccc2nc(NC(=O)C(=O)C(C(=O)c3ccccc3F)C3OC(=O)c4ccccc43)sc2c1 (centres undefined)	50.1 µM	52.4 µM	45.3 µM	46.5 µM	77.6 µM	–	40.2 µM	33.6 µM	–	71	77.8	–	–	–
N#Cc1c(NC(=S)Nc2ccc(Cl)cc2)sc2c1CCN(N1CCc3c(sc(NC(=S)Nc4ccc(Cl)cc4)c3C#N)C1)C2	> 100 µM	34.2 µM	> 100 µM	> 100 µM	> 100 µM	58.8 µM	> 100 µM	59.9 µM	> 100 µM	–	–	–	–	–
N#CCCC(C=O)(CCC#N)CCC#N	> 100 µM	> 100 µM	> 100 µM	> 100 µM	> 100 µM	> 100 µM	> 100 µM	> 100 µM	> 100 µM	–	–	–	–	–
O=C(O)c1c(CC(Cc2ccc3c(c2)CCC3)C(=O)O)ccc2c1CCC2 (centres undefined)	> 100 µM	> 100 µM	> 100 µM	> 100 µM	> 100 µM	> 100 µM	> 100 µM	> 100 µM	> 100 µM	–	–	–	–	–
Cn1/c(=N\N=C2\C=C3CCCCC3(C)CC2)sc2ccccc21 (centres undefined)	> 100 µM	> 100 µM	> 100 µM	> 100 µM	> 100 µM	> 100 µM	> 100 µM	> 100 µM	> 100 µM	–	–	–	–	–
O=CCCCCCOCc1ccccc1	> 43.7 µM	> 100 µM	> 100 µM	> 100 µM	> 100 µM	68.1 µM	> 100 µM	> 100 µM	> 100 µM	–	–	–	–	–
Clc1ccc2c(c1)N(CCCN1CCCC13CCCCC3)c1ccccc1S2	5.18 µM	33.4 µM	> 44 µM	30.3 µM	41.7 µM	23.7 µM	34.3 µM	22.4 µM	34.4 µM	–	–	–	–	–
O=S(=O)(Nc1nc2ccccc2nc1N1CCCCCC1)c1ccccc1	75.1 µM	95.7 µM	> 100 µM	> 100 µM	36.4 µM	> 100 µM	> 100 µM	33.9 µM	36.5 µM	–	–	–	–	–
Cc1cn(CCCCCCOC(=O)NC(CCCNC(N)=O)C(=O)O)c(=O)[nH]c1=O (centres undefined)	> 100 µM	> 100 µM	> 100 µM	> 100 µM	> 100 µM	> 100 µM	> 100 µM	> 100 µM	> 100 µM	–	–	–	–	–
C[n+]1cccc2ccc3cccnc3c21	> 100 µM	> 100 µM	> 100 µM	> 100 µM	> 100 µM	> 100 µM	> 100 µM	> 100 µM	> 100 µM	–	–	–	–	–
Nc1c(C(=O)c2ccc(Cl)c(Cl)c2)[nH]c(NCc2ccccc2)c1C(=S)Nc1ccccc1	38.4 µM	6.47 µM	29.6 µM	18.9 µM	15.8 µM	27.9 µM	37.7 µM	21.6 µM	38.5 µM	–	–	–	–	–
NC(=O)[C@H](Cc1ccc(O)cc1)Nc1c(O)c2c(c(O)c1Cl)C(=O)C=CC2=O	3.19 µM	5.28 µM	> 10 µM	4.64 µM	3.41 µM	4.62 µM	> 10 µM	> 6.36 µM	> 5.74 µM	–	–	–	–	–
CC(C)(CO[C@H]1C[C@H]2CC[C@@]1(C)C2(C)C)[N+](=O)[O-]	22.5 µM	32.1 µM	46.2 µM	34.9 µM	76 µM	27.9 µM	37.2 µM	25.8 µM	56.5 µM	–	–	–	–	–
Cc1c(C)c2c(c(N)c1C#N)C(=O)N(N)C2=O	> 100 µM	> 100 µM	> 100 µM	> 100 µM	> 100 µM	> 100 µM	> 100 µM	> 100 µM	> 100 µM	–	–	–	–	–
Cn1c(=O)c2c(nc3[nH]c(=O)c(Br)cn32)n(C)c1=O	> 100 µM	> 100 µM	> 100 µM	> 100 µM	> 100 µM	> 100 µM	> 100 µM	> 100 µM	> 100 µM	–	–	–	–	–
O=C(CNc1ccccc1C(=O)O)Nn1cnc2ccc(S(=O)(=O)Nc3ccccc3C(=O)O)cc2c1=O	> 100 µM	> 100 µM	> 100 µM	> 100 µM	> 100 µM	> 100 µM	> 100 µM	> 100 µM	> 100 µM	–	–	–	–	–
C[s+]1c2ccccc2c2ccccc21	> 100 µM	> 100 µM	> 100 µM	> 100 µM	> 100 µM	> 100 µM	> 100 µM	> 100 µM	> 100 µM	> 100	> 100	–	–	–
N#Cc1ccccc1NC(=O)C(=O)C(C(=O)c1ccccc1F)C1OC(=O)c2ccccc21 (centres undefined)	54.6 µM	82.9 µM	> 100 µM	> 100 µM	> 100 µM	–	> 100 µM	> 100 µM	–	> 100	> 100	> 100	–	–
